10 molecules from ChEMBL document CHEMBL1201862, “PubChem BioAssay data set” (2004) can be followed below.

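96-well plates; 48 h exposure; 5 concentrations. Endpoints by linear interpolation between flanking doses. Not reached: highest tested concentration assigned. GI50: concentration for 50% inhibition of growth.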 Activity calls are given as the source filed them. Rule as the data show it: active = GI50 up to about 1.1 µM and inactive = higher. Bounds are passed on as bounds.

Among the test systems are A498; ACHN; EKVX; HCT-116; HCT-15; HL-60; Hs-578T; IGROV-1; K562; LOX IMVI; MDA-N; OVCAR-4; OVCAR-8; RXF 393; SF-539; SK-MEL-28; SK-MEL-2; SK-OV-3; SNB-75; UACC-62.
What all share (assay): growth of human tumour cells (NCI), 48 h

Consider `CC(C)/C(Cl)=N/OC(=O)Nc1ccc(Cl)c(Cl)c1`, for which the GI50 is 18 µM (inactive) in the experiment on A498; 1.99 µM (inactive) with ACHN; 2 µM (inactive) in the experiment on EKVX; 2.18 µM (inactive) in the experiment with HCT-116; 2.33 µM in the experiment on HCT-15; 1.76 µM (inactive) with HL-60. Besides, the GI50 was 23.7 µM (inactive) with Hs-578T; 11.7 µM (inactive) in the experiment with IGROV-1; 0.989 µM (active) in the experiment on K562; 1.64 µM (inactive) with LOX IMVI; 3.59 µM (inactive) with MDA-N; 9.31 µM (inactive) with OVCAR-4. In addition, the GI50 with OVCAR-8 is 18.1 µM (inactive); with RXF 393, 13.4 µM (inactive); in the experiment with SF-539, 13.6 µM (inactive); in the experiment on SK-MEL-28 it was 2.01 µM (inactive); in the experiment on SK-MEL-2, 18.4 µM (inactive); with SK-OV-3, 17.1 µM (inactive). Moreover, the GI50 with SNB-75 was 19.7 µM (inactive); in the experiment with UACC-62, 13.6 µM (inactive).
Regarding `Cc1cn([C@@H]2O[C@H](CO[Si](C)(C)C(C)(C)C)[C@]3(O[C@H]3C(=O)NO)[C@H]2O[Si](C)(C)C(C)(C)C)c(=O)[nH]c1=O`, the GI50 was 1.9 µM (inactive) in the experiment with A498; 1.7 µM (inactive) in the experiment on ACHN; 1.84 µM (inactive) in the experiment with EKVX; 1.52 µM (inactive) in the experiment with HCT-116; 1.87 µM with HCT-15; 1.61 µM (inactive) with HL-60. Also, the GI50 in the experiment on Hs-578T is 1.92 µM (inactive); with IGROV-1 it was 1.71 µM (inactive); in the experiment on K562, 2.47 µM (inactive); in the experiment on LOX IMVI, 1.76 µM (inactive); in the experiment on MDA-N it was 1.58 µM (inactive); in the experiment with OVCAR-4 it was 1.75 µM (inactive). The GI50 with OVCAR-8 was 1.79 µM (inactive); with RXF 393 it was 1.73 µM (inactive); in the experiment on SF-539, 1.5 µM (inactive); in the experiment with SK-MEL-28, 1.76 µM (inactive); in the experiment with SK-MEL-2, 2.01 µM (inactive); in the experiment with SK-OV-3, 1.87 µM (inactive). Moreover, the values for the GI50 in the experiment with SNB-75 and in the experiment with UACC-62 were 1.71 µM (inactive) and 1.82 µM (inactive), respectively.
For the molecule `CC1(c2ccc(F)cc2)CC(c2ccc(F)cc2)=C(C#N)C(=C(C#N)C#N)N1` (stereo not given), the GI50 with A498 was 19.6 µM (inactive); in the experiment on ACHN it was 16.6 µM (inactive); with EKVX, 17 µM (inactive); in the experiment with HCT-116, 15.6 µM (inactive); in the experiment with HCT-15, 14.8 µM; in the experiment on HL-60, 6.31 µM (inactive). Moreover, the GI50 with Hs-578T is 23.3 µM (inactive); in the experiment with IGROV-1 it was 17.1 µM (inactive); with K562, 11 µM (inactive); in the experiment on LOX IMVI it was 18.6 µM (inactive); in the experiment with MDA-N it was 17.4 µM (inactive); with OVCAR-4 it was 13.4 µM (inactive). The GI50 in the experiment on OVCAR-8 was 20.1 µM (inactive); in the experiment with RXF 393 it was 12.8 µM (inactive); in the experiment on SF-539 it was 25.7 µM (inactive); in the experiment with SK-MEL-28, 24 µM (inactive); in the experiment on SK-MEL-2, 16 µM (inactive); with SK-OV-3 it was 21.8 µM (inactive). The GI50 was 19.8 µM (inactive) in the experiment on SNB-75 and 14.3 µM (inactive) in the experiment with UACC-62.
Take `COC(=O)c1c2c(cc3c1CC1(C3)Cc3cc4c(c(C(C)=O)c3C1)CCC4)C=CC2` (stereo not given): the GI50 in the experiment on A498 was > 31.6 µM (inactive); in the experiment on ACHN it was 10.2 µM (inactive); in the experiment with EKVX, > 31.6 µM (inactive); with HCT-116 it was 27.9 µM (inactive); in the experiment with HCT-15, 18.3 µM; with HL-60 it was 16.7 µM (inactive). For the same molecule, the GI50 in the experiment with Hs-578T was > 31.6 µM (inactive); in the experiment on IGROV-1, > 31.6 µM (inactive); with K562, 27 µM (inactive); in the experiment with LOX IMVI it was > 10 µM (inactive); in the experiment on MDA-N it was > 10 µM (inactive); with OVCAR-4, 24.5 µM (inactive). For the same molecule, the GI50 with OVCAR-8 is > 31.6 µM (inactive); in the experiment on RXF 393, > 10 µM (inactive); in the experiment with SF-539, > 31.6 µM (inactive); with SK-MEL-28 it was 29.4 µM (inactive); in the experiment on SK-MEL-2, > 31.6 µM (inactive); in the experiment with SK-OV-3, > 10 µM (inactive). In addition, the GI50 is 4.6 µM (inactive) with SNB-75 and 30.7 µM (inactive) in the experiment on UACC-62.
Consider `CCOC(=O)C1(C(=O)OCC)C[C@@H](C)[C@@H](O)C1`, for which the GI50 with A498 is > 100 µM (inactive); with ACHN, > 100 µM (inactive); in the experiment on EKVX it was > 100 µM (inactive); in the experiment on HCT-116, > 100 µM (inactive); in the experiment on HCT-15, more than 100 µM; with HL-60 it was 89.9 µM (inactive). The GI50 with Hs-578T, in the experiment with IGROV-1, in the experiment on K562, in the experiment with LOX IMVI, in the experiment on MDA-N and in the experiment on OVCAR-4 was > 100 µM (inactive) throughout. Besides, the GI50 in the experiment on OVCAR-8, in the experiment on RXF 393, with SF-539, in the experiment on SK-MEL-28, in the experiment with SK-MEL-2 and with SK-OV-3 was > 100 µM (inactive) each time. Moreover, the GI50 is 75.7 µM (inactive) in the experiment with SNB-75 and > 100 µM (inactive) with UACC-62.
Regarding `Cc1ccc2c(=O)[nH]sc2c1`, the GI50 in the experiment with A498 is 64.1 µM (inactive); in the experiment with ACHN, 9.29 µM (inactive); in the experiment with EKVX it was 14.9 µM (inactive); in the experiment on HCT-116, 31.9 µM (inactive); in the experiment with HCT-15, 14.6 µM; in the experiment on HL-60, 13.1 µM (inactive). In addition, the GI50 in the experiment on Hs-578T was 21.5 µM (inactive); in the experiment with IGROV-1, 19.7 µM (inactive); in the experiment with K562, 5.58 µM (inactive); in the experiment on LOX IMVI it was 16.1 µM (inactive); in the experiment with MDA-N it was 14 µM (inactive); in the experiment with OVCAR-4 it was 27.9 µM (inactive). Further, the GI50 was 17.3 µM (inactive) in the experiment with OVCAR-8; 15.3 µM (inactive) with RXF 393; 12.6 µM (inactive) in the experiment on SF-539; 17.9 µM (inactive) in the experiment on SK-MEL-28; 37.7 µM (inactive) with SK-MEL-2; > 100 µM (inactive) in the experiment with SK-OV-3. Besides, the GI50 with SNB-75 is 71.6 µM (inactive); in the experiment with UACC-62, 17.1 µM (inactive).
Take `Cc1ccc(S(=O)(=O)NC(=O)NCC(=O)NCC(=O)O)cc1`: the GI50 in the experiment with A498 is > 100 µM (inactive); in the experiment with ACHN it was > 100 µM (inactive); in the experiment on EKVX, > 100 µM (inactive); in the experiment with HCT-116, > 100 µM (inactive); in the experiment on HCT-15, more than 100 µM; in the experiment on HL-60, > 100 µM (inactive). Moreover, the GI50 in the experiment on Hs-578T, with IGROV-1, with K562, in the experiment with LOX IMVI, in the experiment with MDA-N and in the experiment on OVCAR-4 was > 100 µM (inactive) throughout. Also, the GI50 in the experiment on OVCAR-8, with RXF 393, with SF-539, with SK-MEL-28, in the experiment on SK-MEL-2 and with SK-OV-3 was > 100 µM (inactive) each time. Further, the GI50 in the experiment with SNB-75 and with UACC-62 was > 100 µM (inactive) in each case.
Take `C[C@]12CC[C@@H]3c4ccc(OP(=O)(O)O)cc4CC[C@H]3[C@@H]1CCC2=O`: the GI50 is > 100 µM (inactive) with A498; > 100 µM (inactive) in the experiment with ACHN; 42.8 µM (inactive) in the experiment with EKVX; 55.1 µM (inactive) in the experiment on HCT-116; more than 100 µM in the experiment with HCT-15; 71.4 µM (inactive) with HL-60. The GI50 in the experiment on Hs-578T is 41.3 µM (inactive); in the experiment on IGROV-1, > 100 µM (inactive); in the experiment with K562, 46.3 µM (inactive); in the experiment with LOX IMVI it was 95.9 µM (inactive); in the experiment with MDA-N, 58.5 µM (inactive); with OVCAR-4, 50.9 µM (inactive). For the same molecule, the GI50 with OVCAR-8 is > 100 µM (inactive); in the experiment with RXF 393, 56.9 µM (inactive); in the experiment on SF-539, 81.8 µM (inactive); in the experiment with SK-MEL-28, > 100 µM (inactive); in the experiment on SK-MEL-2, 62.5 µM (inactive); in the experiment with SK-OV-3 it was > 100 µM (inactive). In addition, the GI50 with SNB-75 is 68.9 µM (inactive); in the experiment with UACC-62 it was 66.2 µM (inactive).
As to `NCCCCNCCCN1CC1`, the GI50 was 0.319 µM (active) in the experiment on A498; 0.902 µM (active) in the experiment with ACHN; 3.15 µM (inactive) in the experiment on EKVX; 2.42 µM (inactive) in the experiment on HCT-116; 4.91 µM with HCT-15; 0.436 µM (active) in the experiment on HL-60. For the same molecule, the GI50 with Hs-578T is 0.433 µM (active); in the experiment with IGROV-1 it was 2.77 µM (inactive); with K562, 1.75 µM (inactive); with LOX IMVI, 0.284 µM (active); with MDA-N, 1.62 µM (inactive); in the experiment on OVCAR-4 it was 0.205 µM (active). Besides, the GI50 in the experiment with OVCAR-8 is 0.883 µM (active); in the experiment with RXF 393 it was 0.123 µM (active); with SF-539, 0.628 µM (active); in the experiment on SK-MEL-28 it was 1.72 µM (inactive); in the experiment with SK-MEL-2, 0.752 µM (active); in the experiment with SK-OV-3, 0.977 µM (active). Moreover, the GI50 is 0.246 µM (active) in the experiment with SNB-75 and 5.18 µM (inactive) in the experiment with UACC-62.
As for `CC1=CC(=O)[C@@H](O)[C@]2(C)[C@H]3[C@@]4(O)OC[C@@]35[C@@H](C[C@@H]12)OC(=O)C(OC(=O)CC1=CCCC1)[C@H]5[C@@H](C)[C@H]4O` (stereo not given in full), the GI50 is 0.429 µM (active) in the experiment on A498; 0.0344 µM (active) with ACHN; 0.224 µM (active) with EKVX; 0.0255 µM (active) in the experiment with HCT-116; 0.0593 µM in the experiment on HCT-15; < 0.0168 µM (active) with HL-60. Also, the GI50 was 0.0272 µM (active) in the experiment on Hs-578T; 0.0188 µM (active) with IGROV-1; 0.0246 µM (active) in the experiment on K562; < 0.0177 µM (active) with LOX IMVI; 0.0269 µM (active) in the experiment with MDA-N; 0.0527 µM (active) in the experiment with OVCAR-4. Moreover, the GI50 in the experiment on OVCAR-8 is 0.0279 µM (active); in the experiment on RXF 393 it was 0.04 µM (active); in the experiment with SF-539, 0.0169 µM (active); with SK-MEL-28, 0.0204 µM (active); in the experiment with SK-MEL-2, 0.0547 µM (active); with SK-OV-3, 0.551 µM (active). Further, the GI50 was 0.0423 µM (active) in the experiment on SNB-75 and 0.0383 µM (active) in the experiment with UACC-62.
